Assay results: patent publication US12569477B2, “Compositions for synergistically enhancing mitochondrial function” (MITOCHOLINE LTD, priority 2017, dated 2026)

Assays:
[1] = system: whole-brain ATP levels; conditions: for ATP, % (ATP levels in the brain at 15th min after ischemia onset, in percent to baseline): male rats, 10 mg/kg for 7 days, global ischemia, mean±SEM, baseline 100%, saline 35.3 ± 3.0
Procedure: Then global ischemia was induced in rats by cardiac arrest under anesthesia and whole-brain ATP levels were measured by 31P NMR in vivo for 15 min. Results are presented in Table 3 as mean±SEM ATP levels in the brain at 15th min after ischemia onset, in percent to baseline (accepted for 100%).

[2] = system: primary neurons and astrocytes; assay: Mitochondrial NADH autofluorescence in primary neurons and astrocytes; type: cell-based, mouse; conditions: for NADH autofluorescence, % of control: after 20 min of incubation; for NADH autofluorescence, % of control / Initial change of mitochondrial NADH level on application: DiSU 50 μM, NAM 20 μM, sodium succinate 50 μM
Procedure: Mixed cultures of cortical neurons and glial cells were prepared as described, from mouse pups 1-3 days postpartum. Neurons were easily distinguishable from glia: they appeared phase bright, had smooth rounded somata and distinct processes, and positioned just above the focal plane of the glial layer. Cells were used at 14-21 DIV. Experiments were conducted in HBSS solution at the 37° C.
To estimate the mitochondrial pool of NADH, maximal activation of mitochondrial respiration is induced by uncoupler FCCP (mitochondrial NADH is taken 0) followed by inhibition of respiration by NaCN (NADH is maximal due to inhibition of consumption). This set up provides evaluation of several characteristics: the rate of NADH production in TCA cycle (recovery of the NADH signal after NaCN), total mitochondrial pool and redox index.

[3] = system: primary myotubes; assay: Autophagy/mitophagy: co-localization of mitochondria and lysosomes in primary myotubes; type: cell-based, rat; conditions: 50 μM DiSU+20 μM NAM or single components in corresponding molar amounts
Description: The upper panels show confocal images of cells loaded with two dyes MitoTracker Green (labeling mitochondria) and LysoTracker Red (labeling lysosomes); the lower panel: quotative evaluation of co-localization of mitochondria and lysosomes in cells. […] Values are presented as mean±SD. **P<0.001. Independent experiments (n) are indicated as dots in the scatter plot.

[4] = system: primary myotubes; assay: Mitochondrial membrane potential (TMRM) in primary myotubes; type: cell-based, rat; conditions: DiSU 50 μM, NAM 20 μM, or both (2:1:0.4); n=67 myotubes
Procedure: (§1) Primary Skeletal Muscle Cell culture. Primary myotube cells were obtained from postnatal day 0-2 (P0-P2) rat pups which were sacrificed by decapitation. Briefly, the rats were immersed in 70% ethanol and the hind-limbs removed under a dissection microscope, in dissection solution containing Dulbecco's Phosphate Buffered Saline (PBS) with penicillin streptomycin (5000 units/ml) and Amphotericin B (2.5 mg/L). The tissues were then digested in 0.2% collagenase solution at 37° C. for 30-40 minutes.
The reaction was stopped by adding 2-3 ml fetal bovine serum (FBS), and the tissue suspension was centrifuged at 2010 rpm (700 g) for 10 minutes. The cell pellet was resuspended in pre-warmed growth medium, Dulbecco's modified Eagle's medium (DMEM), containing 20% FBS, 100 i.u./ml penicillin and 200 i.u./ml streptomycin], and plated on 22 mm coverslips that were pre-coated with 0.2% gelatin for 1 hour at 37° C. […]
Tetramethyl rhodamine methyl ester (TMRM) was used to study the changes of the mitochondrial membrane potential (Δψm). […] TMRM fluorescence was excited at 543 nm (HeNe laser), and emission was measured at >560 nm. […] Therefore, the changes in potential are reflected by changes in fluorescence intensity within the mitochondria which is measured after thresholding out the background signal from the cytosol to give a mean value per pixel within the mitochondrial population of a cell. […]

[5] = system: cortical neurons and glial cells; assay: ATP levels in mixed primary cultures of cortical neurons and glial cells (AT1.03 probe, confocal microscopy); conditions: same treatments as ATP, control 0
Procedure: Mixed primary cultures of cortical neurons and glial cells were prepared from mouse pups 1-3 days postpartum, as described by Vaarmann A. et al., 2010 (Cell Calcium 2010, 48(2-3):176-82). For measurements of ATP, the cells at 14-21 DIV were transfected for 24 h with the ATP sensing probe AT1.03 (as described in Imamura H et al., PNAS 2009, 106(37):15651-15656) using Lipofectamine 2000 according to the manufacturer's instructions. […] Then, ATP levels in cells were measured using confocal microscopy. […] All data presented were obtained from at least 5 coverslips and 2-3 different cell preparations.
Mean of ATP levels in non-treated cells (control) was accepted for 100%. Effects of the treatments on ATP levels in cells (ΔATP) were calculated by formula: ΔATP=ATPtreat−ATPcontrol, wherein ATPtreat is ATP level in treated cells and ATPcontrol is ATP levels in control cells.

[6] = system: primary myotubes; assay: Mitochondrial NADH redox index and NADH pool in myotube cultures; type: cell-based, rat; conditions: blend 1: 100 μM DiSU+40 μM NAM; blend 2: 50 μM DiSU+20 μM NAM; choline (100, succinate (50 μM), NAM (50 μM)); FIG. 1B
Procedure: as §1
The reaction was stopped by adding 2-3 ml fetal bovine serum (FBS), and the tissue suspension was centrifuged at 2010 rpm (700 g) for 10 minutes. The cell pellet was resuspended in pre-warmed growth medium, Dulbecco's modified Eagle's medium (DMEM), containing 20% FBS, 100 i.u./ml penicillin and 200 i.u./ml streptomycin], and plated on 22 mm coverslips that were pre-coated with 0.2% gelatin for 1 hour at 37° C. Cells were then cultured in a humidified CO2 incubator (5% CO2 in air) at 37° C. After 2 or 3 days, the medium was changed to a low-serum medium (DMEM containing 10% FBS without antibiotics), and was subsequently renewed every 3 or 4 days. All experiments were performed in vitro between days 2 and 11 in culture when spindle-shaped myoblasts had proliferated and aligned themselves for fusion (˜70% confluency).

With `C[N+](C)(C)CCO.[Cl-]` [Choline chloride, choline chloride] the “ATP, % (ATP levels in the brain at 15th min after ischemia onset, in percent to baseline)” value [1] was 36.8 ± 5.0%.

For `O=C([O-])CCC(=O)[O-].[K+].[K+]` [Dipotassium succinate, dipotassium succinate], the “ATP, % (ATP levels in the brain at 15th min after ischemia onset, in percent to baseline)” value [1] was 40.9 ± 9.0%.

For `NC(=O)c1cccnc1` [NAM, nicotinamide], the “Mitochondrial NADH pool, % of control” value ([2]; NAM 20 μM alone, short term (15-20 min)) was 116±8 % of control, the “Autophagy (co-localization of mitochondria and lysosomes)” value (“Autophagy” below) [3] was “not” and the “Increase in TMRM fluorescence (mitochondrial membrane potential) compared to control” value [4] was “increase”.

With `O=C(O)c1cccnc1` [Nicotinic acid, nicotinic acid] the “ΔATP, % (ATPtreat−ATPcontrol)” value [5] was “+1%”.

For `O=C([O-])CCC(=O)[O-].[Na+].[Na+]` [Sodium succinate, sodium succinate], the “NADH autofluorescence, % of control” value [2] was “not detected a noticeable increase”, the “Initial change of mitochondrial NADH level on application” value [2] was “fast and significant decrease” and the NADH redox index [6] was “did not induce significant changes”. The “Autophagy” value [3] was “not” and the “ATP, % (ATP levels in the brain at 15th min after ischemia onset, in percent to baseline)” value [1] was 34.3 ± 2.4%.

choline succinate salt (2:1) [DiSU] was tested, and the “NADH autofluorescence, % of control” value [2] was 123±6 % of control, the “Initial change of mitochondrial NADH level on application” value [2] was “only slight initial decrease” and the “Autophagy” value [3] was “significantly increase”. The “Increase in TMRM fluorescence (mitochondrial membrane potential) compared to control” value [4] was “increase”, the “ATP, % (ATP levels in the brain at 15th min after ischemia onset, in percent to baseline)” value [1] was 55.5 ± 4.8 % and the “ATP levels in the brain under normoxia” value ([1]; rats, normoxia) was “did not affect”.
